{"source": "paper PMC545074", "about": "“The two neutrophil members of the formylpeptide receptor family activate the NADPH-oxidase through signals that differ in sensitivity to a gelsolin derived phosphoinositide-binding peptide” (BMC Cell Biology, 2004)", "key": {"FPRL1 [1]": {"target": "T1, FPRL1 (Homo sapiens, UniProt P25090)", "T1 construct": "Neutrophil granulocytes were isolated from buffy coats obtained from healthy adults; endogenous in cells; host or cells: human neutrophil granulocytes from buffy coats of healthy adults", "T1 sequence (P25090 1-351)": "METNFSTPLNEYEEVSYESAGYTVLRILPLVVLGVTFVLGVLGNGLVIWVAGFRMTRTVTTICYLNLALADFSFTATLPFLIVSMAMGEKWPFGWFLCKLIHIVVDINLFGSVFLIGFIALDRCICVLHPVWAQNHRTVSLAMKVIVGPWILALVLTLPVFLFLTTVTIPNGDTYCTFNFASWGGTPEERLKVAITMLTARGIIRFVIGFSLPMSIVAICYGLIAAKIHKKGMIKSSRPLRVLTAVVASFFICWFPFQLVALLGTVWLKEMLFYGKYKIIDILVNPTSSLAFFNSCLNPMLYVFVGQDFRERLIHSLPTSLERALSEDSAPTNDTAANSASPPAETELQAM", "assay": "Neutrophil NADPH-oxidase activity (superoxide anion release, isoluminol-enhanced chemiluminescence) induced through FPRL1", "format": "cell-based", "settings": "for Effect on WKYMVM induced NADPH-oxidase activity (superoxide production): FPRL1 stimulated by WKYMVM, concentration of test substance not given, antagonists and rhodamine: data not shown", "description": "(§1) Neutrophil granulocytes were isolated from buffy coats obtained from healthy adults. After dextran sedimentation at 1 × g, hypotonic lysis of the remaining erythrocytes, and centrifugation in a Ficoll-Paque gradient, the neutrophils were washed twice and resuspended (1 × 10^7 /ml) in Krebs-Ringer phosphate buffer containing glucose (10 mM), Ca^2+ (1 mM), and Mg^2+ (1.5 mM) (KRG; pH 7.3). The cells were stored on melting ice and used within 120 min of preparation.\n(§2) Neutrophil production and release of superoxide anions was measured by means of an isoluminol-enhanced chemiluminescence (CL) assay. The CL activity was measured in a six-channel Biolumat LB 9505 apparatus (Berthold Co., Wildbad, Germany), using disposable 4-ml polypropylene tubes with a 900-μl reaction mixture containing 10^5–10^6 neutrophils, horseradish peroxidase (4 U) and isoluminol (20 μM) with and without cytochalasin B or PBP10. The measuring tubes were equilibrated for 5 to 10 minutes at 37°C and the cells were activated by addition of a receptor specific peptide agonist, fMLF for FPR and WKYMVM for FPRL1. The light emission was recorded continuously. Details about the CL technique are given in [45]."}, "FPRL1 [2]": {"target": "T1, FPRL1", "assay": "Cytosolic calcium mobilization in neutrophils (Fura-2 fluorescence), FPRL1 agonist WKYMVM", "format": "cell-based", "description": "as §1\n(§3) Neutrophils at a density of 2 × 10^7/ml in Ca^2+-free KRG supplemented with bovine serum albumin (BSA, 0.1%) were incubated with the acetoxymethylated derivative fura-2/AM (2 μM) at room temperature for 30 minutes. The cells were washed twice and resuspended in KRG, adjusted to 2 × 10^7/ml and kept protected from light on ice until use. Cells with or without PBP10 were equilibrated for 5 minutes at 37°C, after which the peptide agonist was added. The fura-2 fluorescence was followed with a luminescence spectrometer (LS50B; Perkin Elmer Corp.) using excitation wavelengths of 340 nm and 380 nm, and an emission wavelength of 510 nm and the [Ca^2+]i was calculated as described earlier."}, "FPR [3]": {"system": "FPR", "assay": "Cytosolic calcium mobilization in neutrophils (Fura-2 fluorescence), FPR agonist fMLF", "format": "cell-based, human", "description": "as §1, §3"}, "FPR [4]": {"system": "FPR", "assay": "Neutrophil NADPH-oxidase activity (superoxide anion release, isoluminol-enhanced chemiluminescence) induced through FPR", "format": "cell-based, human", "settings": "for Effect on fMLF induced NADPH-oxidase activity (superoxide production): FPR stimulated by fMLF, concentration of test substance not given, data not shown", "description": "as §1, §2"}, "FPR [5]": {"system": "FPR", "set-up": "method as in PMID 15147563", "settings": "cited from earlier work"}, "FPRL1 [6]": {"target": "T1, FPRL1", "set-up": "method as in PMID 15147563", "settings": "cited from earlier work"}, "FPR [7]": {"system": "FPR", "assay": "Mobilization of CR3 to the neutrophil cell surface (FACS), fMLF induced", "format": "cell-based, human", "settings": "PBP10 1 μM at 37°C for 5 minutes, then fMLF 100 nM for 10 minutes, four independent experiments", "description": "as §1\n(§4) The exposure of CR3 (CD11b/CD18) on the neutrophil cell surface was assessed by immunostaining and FACS-analysis. Cells challenged with peptide agonists with or without PBP10 were fixed with ice-cold paraformaldehyde and washed with FACSwash (PBS, 0.02% NaN3), after which the cells were incubated at 4°C with phycoerythrin-conjugated anti-CR3 antibodies (CD11b; Becton Dickinson 10 μl/10^6 cells) before analysis using a FACScan (Becton Dickinson, Mountain View, CA)."}, "[8]": {"set-up": "method as in earlier work", "settings": "cited from earlier work"}, "[9]": {"system": "plasma membrane of neutrophils and other cells", "settings": "cited from earlier work"}, "FPRL1 [10]": {"target": "T1, FPRL1", "assay": "Mobilization of CR3 to the neutrophil cell surface (FACS), WKYMVM induced", "format": "cell-based", "settings": "PBP10 1 μM at 37°C for 5 minutes, then WKYMVM 100 nM for 10 minutes, four independent experiments", "description": "as §1, §4"}, "PKC": {"system": "PKC", "assay": "Neutrophil NADPH-oxidase activity induced by the receptor independent PKC activator PMA", "format": "cell-based, human", "settings": "neutrophils incubated 120 minutes with PTX 500 ng/ml, then PMA 100 nM"}, "[11]": {"settings": "human neutrophils, 100 nM, Fura-2"}}, "note": "Read-outs that look alike come from different tables or passages of the source. Where a SMILES comes first, the peptide text is derived from it. Where no end group is shown, it is not given here. The star is where a group is joined. RhodamineB = CCN(CC)c1ccc2c(-c3ccccc3C(=O)*)c3ccc(=[N+](CC)CC)cc-3oc2c1", "data": [{"compound": "Trp-Lys-Tyr-Met-Val-Met-NH2 [WKYMVM, FPRL1 specific hexapeptide agonist]", "values": [{"measurement": "Agonist-induced oxidative burst (release of superoxide anions) through FPRL1", "setting": "FPRL1 [1]; human neutrophils, 100 nM and 20 nM shown in Fig 1A", "value": "robust oxidative burst"}, {"measurement": "Agonist-induced change in cytosolic calcium through FPRL1", "setting": "FPRL1 [2]; [11]", "value": "rapid and transient increase"}]}, {"compound": "N-formyl-Met-Leu-Phe [fMLF, prototype FPR agonist]", "values": [{"measurement": "Agonist-induced change in cytosolic calcium through FPR", "setting": "FPR [3]; [11]", "value": "rapid and transient increase"}, {"measurement": "Agonist-induced oxidative burst (release of superoxide anions) through FPR", "setting": "FPR [4]", "value": "robust oxidative burst"}]}, {"compound": "C=C1[C@@H](C)[C@H]2[C@H](Cc3ccccc3)NC(=O)[C@]23OC(=O)/C=C/[C@H](O)CCC[C@@H](C)C/C=C/[C@H]3[C@@H]1O", "note": "[cytochalasin B]", "values": [{"measurement": "Effect of cytochalasin B on the neutrophil response to FPR agonists", "setting": "FPR [5]", "value": "augmented and prolonged"}, {"measurement": "Effect of cytochalasin B on the transient rise in intracellular calcium induced by active FPR", "setting": "FPR [3]; data not shown", "value": "not affected"}, {"measurement": "Effect of cytochalasin B on the transient rise in intracellular calcium induced by active FPRL1", "setting": "FPRL1 [2]; data not shown", "value": "not affected"}, {"measurement": "Effect of cytochalasin B on the neutrophil response to FPRL1 agonists", "setting": "FPRL1 [6]", "value": "augmented and prolonged"}]}, {"compound": "CCN(CC)c1ccc2c(-c3ccccc3C(=O)N[C@@H](CCC(N)=O)C(=O)N[C@@H](CCCNC(=N)N)C(=O)N[C@@H](CC(C)C)C(=O)N[C@@H](Cc3ccccc3)C(=O)N[C@@H](CCC(N)=O)C(=O)N[C@H](C(=O)N[C@@H](CCCCN)C(=O)NCC(=O)N[C@@H](CCCNC(=N)N)C(=O)N[C@@H](CCCNC(=N)N)C(=O)O)C(C)C)c3ccc(=[N+](CC)CC)cc-3oc2c1", "note": "[PBP10, rhodamine-B-QRLFQVKGRR] (RhodamineB-QRLFQVKGRR-OH; C-terminus assumed)", "values": [{"measurement": "IC50", "setting": "FPRL1 [1]", "value": 0.05, "unit": "µM"}, {"measurement": "Effect on NADPH-oxidase activity induced by WKYMVM in the presence of cytochalasin B", "setting": "FPRL1 [1]; cytochalasin B 2.5 μg/ml, WKYMVM 100 nM", "value": "largely inhibited"}, {"measurement": "Effect on WKYMVM induced NADPH-oxidase activity (superoxide production)", "setting": "FPRL1 [1]; human neutrophils", "value": "totally inhibited"}, {"measurement": "Effect on FPR induced granule mobilization (CR3 exposure)", "setting": "FPR [7]", "value": "without effect"}, {"measurement": "PIP2 binding", "setting": "[8]", "value": "PIP2 binding capacity"}, {"measurement": "Membrane permeability (ability to cross the plasma membrane)", "setting": "[9]; neutrophils and other cells", "value": "membrane permeable"}, {"measurement": "Effect on the calcium response induced by fMLF", "setting": "FPR [3]; PBP10 1 μM, 5 minutes at 37°C prior to fMLF 100 nM, Fura-2, representative experiment", "value": "did not alter"}, {"measurement": "Effect on the calcium response induced by WKYMVM", "setting": "FPRL1 [2]; PBP10 1 μM, 5 minutes at 37°C prior to WKYMVM 100 nM, Fura-2, representative experiment", "value": "did not alter"}, {"measurement": "Effect on the FPR-mediated NADPH-oxidase response in the presence of cytochalasin B", "setting": "FPR [4]; cytochalasin B 2.5 μg/ml, fMLF 100 nM, PBP10 5 μM (higher concentrations required)", "value": "only partly inhibited"}, {"measurement": "Effect on the fMLF induced NADPH-oxidase activity", "setting": "FPR [4]; human neutrophils, PBP10 at concentrations up to 10 μM prior to activation with fMLF, isoluminol chemiluminescence", "value": "no effect"}, {"measurement": "Effect on WKYMVM induced secretory response (mobilization of CR3 to the cell surface)", "setting": "FPRL1 [10]", "value": "blocked"}]}, {"compound": "COC[C@H]1OC(=O)c2coc3c2[C@@]1(C)C1=C(C3=O)[C@@H]2CCC(=O)[C@@]2(C)C[C@H]1OC(C)=O", "note": "[Wortmannin]", "values": [{"measurement": "Effect of the PI3K inhibitor on oxidase activity induced by WKYMVM", "setting": "FPRL1 [1]; neutrophils incubated with different concentrations at 37°C for 30 minutes, then WKYMVM 100 nM, representative experiment", "value": "largely inhibited"}, {"measurement": "Effect of the PI3K inhibitor on oxidase activity induced by fMLF", "setting": "FPR [4]; neutrophils incubated with different concentrations at 37°C for 30 minutes, then fMLF 100 nM, representative experiment", "value": "largely inhibited"}]}, {"compound": "WRWWWW [FPRL1 specific antagonist]", "values": [{"measurement": "Effect on WKYMVM induced NADPH-oxidase activity (superoxide production)", "setting": "FPRL1 [1]; human neutrophils", "value": "totally inhibited"}, {"measurement": "Effect on fMLF induced NADPH-oxidase activity (superoxide production)", "setting": "FPR [4]; human neutrophils", "value": "not affected"}]}, {"compound": "pertussis toxin", "values": [{"measurement": "Effect of pertussis toxin on oxidase activity induced by PMA", "setting": "PKC", "value": "no reduction"}, {"measurement": "Effect of pertussis toxin on the FPRL1 mediated oxidase response", "setting": "FPRL1 [1]; neutrophils incubated 120 minutes with PTX 500 ng/ml, then WKYMVM 100 nM", "value": "inhibited"}, {"measurement": "Effect of pertussis toxin on the FPR mediated oxidase response", "setting": "FPR [4]; neutrophils incubated 120 minutes with PTX 500 ng/ml, then fMLF 100 nM", "value": "inhibited"}]}, {"compound": "QRLFQVKGRR", "values": [{"measurement": "Effect of the unconjugated peptide on the WKYMVM induced neutrophil oxidase activity", "setting": "FPRL1 [1]; 1 μM final concentration, 37°C for 5 minutes, then WKYMVM 100 nM", "value": "no effect"}, {"measurement": "PIP2 binding", "setting": "[8]", "value": "same PIP2-binding characteristics as PBP10"}, {"measurement": "Membrane permeability (ability to cross the plasma membrane)", "setting": "[9]", "value": "lacks the ability to cross the plasma membrane"}]}, {"compound": "Rh-VKGRRG (RhodamineB-VKGRRG) [truncated rhodamine labeled peptide]", "values": [{"measurement": "IC50", "setting": "FPRL1 [1]; human neutrophils treated with the peptide prior to activation with WKYMVM, superoxide release by isoluminol chemiluminescence, 37°C, Fig 1D three independent experiments, read-out: IC50 value for the WKYMVM induced NADPH-oxidase response", "value": 1, "unit": "µM"}]}, {"compound": "cyclosporine H", "values": [{"measurement": "Effect on WKYMVM induced NADPH-oxidase activity (superoxide production)", "setting": "FPRL1 [1]; human neutrophils", "value": "without effect"}, {"measurement": "Effect on fMLF induced NADPH-oxidase activity (superoxide production)", "setting": "FPR [4]; human neutrophils", "value": "totally inhibited"}]}]}
